Our source for the Ki and IC50 values is patent US20250248998A1, “LRRK2 Inhibitors” (Brenig Therapeutics, Inc., priority 2022, published 2025).

The target in experiment [1] is T1, LRRK2[G2019S] (Homo sapiens, UniProt Q5S007, G2019S). Briefly: Enzymatic activity inhibition against LRRK2[G2019S] (ADP-Glo kinase assay, LRRKtide substrate). The format is biochemical. Also on record: purchased SignalChem Biotech, Inc. L10-12GG-10. The note with it: recombinant LRRK2[G2019S] 36 nM, ATP, 1 h at rt, average Ki. As for the experimental part: Example A. Primary Assays Used to Determine Potency of the LRRK2 Inhibition
Assay for Determining Enzymatic Activity Inhibition Against LRRK2[G2019S].
Compound activity was determined using recombinant LRRK2[G2019S] protein (SignalChem Biotech, Inc., Cat #L10-12GG-10) and LRRKtide substrate (SignalChem Biotech, Inc., Cat #L10-58) in an in vitro enzymatic reaction. The enzymatic reaction was carried out in assay buffer (40 mM TRIS-HCl pH 7.4, 20 mM MgCl2, 0.05 mM DTT, 0.1 mg/mL BSA). The compounds were dispensed into a 384 well Diamond Well Plate (Axigen, Cat #P-384-120SQ-C-S) using the Biomek FX liquid handling system at the 80× solutions of compounds in DMSO. The 2× Protein-Substrate mix (final concentration 36 nM of LRRK2[G2019S] and 0.8 μg/μL of LRRKtide) was prepared in 1× Assay buffer and 4 μL of mixture per well was added into the 384-well white Reaction plate with NBS (Corning, Cat #CLS4513). The 4 μL of LRRKtide substrate w/o LRRK2[G2019S] in the 1× buffer was used for a negative control. Plates were centrifuged for 1 min at 200 g. Next the compounds were added to the reaction plate using Biomek station via following steps: 1 μL of 80× compounds (in DMSO) were mixed thoroughly with 39 μL of 2×10 μM ATP in Assay Buffer, then 4 μL of this mixture was added to Reaction plate with 4 μL of Protein-Substrate mix. Plates were centrifuged for 1 min at 200 g and incubated for 1 h at rt. Then, 4 μL per well of ADP-Glo reagent (Promega, ADP-Glo™ Kinase Assay, Cat #V9102) was added. Plates were incubated for 30 min at rt. Then, 8 μL per well of Kinase detection reagent (Promega, ADP-Glo™ Kinase Assay, Cat #V9102) was added and the luminescence signal was measured with a microplate reader. The luminescence signal was detected with CLARIOstar Plus (BMG LABTECH) microplate reader. The % inhibition was then used to calculate the Ki values. The average Ki values are shown in Table A, wherein “A” corresponds to Ki<5.0 nM, “B” corresponds to 5.0 nM≤Ki<10.0 nM, “C” 10.0 nM≤Ki<50.0 nM, “D” corresponds to 50.0 nM≤Ki<100.0 nM and “E” corresponds to Ki>100.0 nM.
Background: ADP-Glo first removes unused ATP, then detects ADP through luciferase.
Target sequence in this assay (Q5S007 970-2527 G2019S limits assumed): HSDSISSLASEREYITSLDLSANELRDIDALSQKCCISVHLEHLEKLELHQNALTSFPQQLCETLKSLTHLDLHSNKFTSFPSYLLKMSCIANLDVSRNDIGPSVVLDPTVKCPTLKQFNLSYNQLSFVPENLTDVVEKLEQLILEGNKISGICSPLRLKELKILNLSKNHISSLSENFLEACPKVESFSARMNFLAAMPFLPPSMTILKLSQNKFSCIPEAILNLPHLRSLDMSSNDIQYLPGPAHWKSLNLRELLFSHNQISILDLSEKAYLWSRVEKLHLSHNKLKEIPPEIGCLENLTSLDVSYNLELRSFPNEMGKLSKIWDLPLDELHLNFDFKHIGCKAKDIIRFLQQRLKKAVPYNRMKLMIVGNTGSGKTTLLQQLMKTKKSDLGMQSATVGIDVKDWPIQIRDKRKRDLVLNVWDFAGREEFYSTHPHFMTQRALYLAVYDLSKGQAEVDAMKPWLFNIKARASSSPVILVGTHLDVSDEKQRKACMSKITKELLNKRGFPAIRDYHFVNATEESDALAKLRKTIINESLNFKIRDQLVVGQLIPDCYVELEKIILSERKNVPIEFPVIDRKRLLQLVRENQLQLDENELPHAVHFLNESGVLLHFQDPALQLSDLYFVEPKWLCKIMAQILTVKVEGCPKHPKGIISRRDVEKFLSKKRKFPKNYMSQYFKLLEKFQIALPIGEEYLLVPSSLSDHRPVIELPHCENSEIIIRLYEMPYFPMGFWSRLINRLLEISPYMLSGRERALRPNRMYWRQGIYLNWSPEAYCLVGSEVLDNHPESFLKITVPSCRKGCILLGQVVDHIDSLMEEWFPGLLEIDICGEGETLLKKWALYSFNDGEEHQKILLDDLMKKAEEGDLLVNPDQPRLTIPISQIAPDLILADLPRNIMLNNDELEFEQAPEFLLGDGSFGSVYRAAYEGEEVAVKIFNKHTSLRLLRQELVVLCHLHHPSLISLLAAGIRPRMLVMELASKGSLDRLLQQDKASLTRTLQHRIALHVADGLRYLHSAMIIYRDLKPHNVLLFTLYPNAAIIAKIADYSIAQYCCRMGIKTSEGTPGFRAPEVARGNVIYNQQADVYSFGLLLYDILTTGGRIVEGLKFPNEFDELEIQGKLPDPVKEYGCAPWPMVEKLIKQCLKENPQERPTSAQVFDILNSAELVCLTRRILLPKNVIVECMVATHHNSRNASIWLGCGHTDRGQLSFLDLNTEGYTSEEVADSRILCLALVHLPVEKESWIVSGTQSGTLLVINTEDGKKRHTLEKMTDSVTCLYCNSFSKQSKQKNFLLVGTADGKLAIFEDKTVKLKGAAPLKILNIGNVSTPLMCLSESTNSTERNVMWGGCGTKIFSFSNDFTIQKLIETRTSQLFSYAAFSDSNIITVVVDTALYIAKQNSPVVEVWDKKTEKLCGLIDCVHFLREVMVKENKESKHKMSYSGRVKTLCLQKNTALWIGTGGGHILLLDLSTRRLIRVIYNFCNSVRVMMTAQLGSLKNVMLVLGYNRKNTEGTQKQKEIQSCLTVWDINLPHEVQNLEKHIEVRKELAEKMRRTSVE

In experiment [2] the target is T2, LRRK2 WT (Homo sapiens, UniProt Q5S007). Briefly: Cell-based NanoBRET target engagement assay in HEK293 cells transfected with LRRK2 WT-NanoLuc fusion vector. Details: expressed in transfected cells; host or cells: HEK293 (ATCC). The note with it: compound treatment 1 h. As for the experimental part:
(§1) Example C. Cell-Based NanoBRET Target Engagement Assay in 11EK293 Cells Transiently Transfected with LRRK2 WT- or LRRK2 (G2019S)-Nano Luc Fusion Vector
(§2) H1EK293 (ATCC) cells were transfected with […] LRRK2 WT or LRRK2 (G2019S) and 9 μg transfection carrier DNA. The transfected cells were treated with the compounds (starting at 1 μM, 10-dose with 3-fold dilution) and reference compounds CEP-701 or Staurosporine (starting at 1 μM, 10-dose with 3-fold dilution); compound treatment time: 1 h. LRRK2 WT and LRRK2 (G2019S) target engagement was measured by NanoBRET assay. Curve fits were performed only when % NanoBret signal at the highest concentration of compounds was less than […]. Assay format: 384-well format, 4000 cells/well. The IC50 values are shown in Table C, wherein “A” corresponds to IC50≤50.0 nM, “B” corresponds to 50.0 nM≤IC50<100.0 nM, “C” corresponds to 100.0 nM≤IC50.
(In BRET a luciferase serves as donor, and the signal depends on an acceptor being close.)
Target sequence in this assay (Q5S007 whole entry, the tested form may be a part): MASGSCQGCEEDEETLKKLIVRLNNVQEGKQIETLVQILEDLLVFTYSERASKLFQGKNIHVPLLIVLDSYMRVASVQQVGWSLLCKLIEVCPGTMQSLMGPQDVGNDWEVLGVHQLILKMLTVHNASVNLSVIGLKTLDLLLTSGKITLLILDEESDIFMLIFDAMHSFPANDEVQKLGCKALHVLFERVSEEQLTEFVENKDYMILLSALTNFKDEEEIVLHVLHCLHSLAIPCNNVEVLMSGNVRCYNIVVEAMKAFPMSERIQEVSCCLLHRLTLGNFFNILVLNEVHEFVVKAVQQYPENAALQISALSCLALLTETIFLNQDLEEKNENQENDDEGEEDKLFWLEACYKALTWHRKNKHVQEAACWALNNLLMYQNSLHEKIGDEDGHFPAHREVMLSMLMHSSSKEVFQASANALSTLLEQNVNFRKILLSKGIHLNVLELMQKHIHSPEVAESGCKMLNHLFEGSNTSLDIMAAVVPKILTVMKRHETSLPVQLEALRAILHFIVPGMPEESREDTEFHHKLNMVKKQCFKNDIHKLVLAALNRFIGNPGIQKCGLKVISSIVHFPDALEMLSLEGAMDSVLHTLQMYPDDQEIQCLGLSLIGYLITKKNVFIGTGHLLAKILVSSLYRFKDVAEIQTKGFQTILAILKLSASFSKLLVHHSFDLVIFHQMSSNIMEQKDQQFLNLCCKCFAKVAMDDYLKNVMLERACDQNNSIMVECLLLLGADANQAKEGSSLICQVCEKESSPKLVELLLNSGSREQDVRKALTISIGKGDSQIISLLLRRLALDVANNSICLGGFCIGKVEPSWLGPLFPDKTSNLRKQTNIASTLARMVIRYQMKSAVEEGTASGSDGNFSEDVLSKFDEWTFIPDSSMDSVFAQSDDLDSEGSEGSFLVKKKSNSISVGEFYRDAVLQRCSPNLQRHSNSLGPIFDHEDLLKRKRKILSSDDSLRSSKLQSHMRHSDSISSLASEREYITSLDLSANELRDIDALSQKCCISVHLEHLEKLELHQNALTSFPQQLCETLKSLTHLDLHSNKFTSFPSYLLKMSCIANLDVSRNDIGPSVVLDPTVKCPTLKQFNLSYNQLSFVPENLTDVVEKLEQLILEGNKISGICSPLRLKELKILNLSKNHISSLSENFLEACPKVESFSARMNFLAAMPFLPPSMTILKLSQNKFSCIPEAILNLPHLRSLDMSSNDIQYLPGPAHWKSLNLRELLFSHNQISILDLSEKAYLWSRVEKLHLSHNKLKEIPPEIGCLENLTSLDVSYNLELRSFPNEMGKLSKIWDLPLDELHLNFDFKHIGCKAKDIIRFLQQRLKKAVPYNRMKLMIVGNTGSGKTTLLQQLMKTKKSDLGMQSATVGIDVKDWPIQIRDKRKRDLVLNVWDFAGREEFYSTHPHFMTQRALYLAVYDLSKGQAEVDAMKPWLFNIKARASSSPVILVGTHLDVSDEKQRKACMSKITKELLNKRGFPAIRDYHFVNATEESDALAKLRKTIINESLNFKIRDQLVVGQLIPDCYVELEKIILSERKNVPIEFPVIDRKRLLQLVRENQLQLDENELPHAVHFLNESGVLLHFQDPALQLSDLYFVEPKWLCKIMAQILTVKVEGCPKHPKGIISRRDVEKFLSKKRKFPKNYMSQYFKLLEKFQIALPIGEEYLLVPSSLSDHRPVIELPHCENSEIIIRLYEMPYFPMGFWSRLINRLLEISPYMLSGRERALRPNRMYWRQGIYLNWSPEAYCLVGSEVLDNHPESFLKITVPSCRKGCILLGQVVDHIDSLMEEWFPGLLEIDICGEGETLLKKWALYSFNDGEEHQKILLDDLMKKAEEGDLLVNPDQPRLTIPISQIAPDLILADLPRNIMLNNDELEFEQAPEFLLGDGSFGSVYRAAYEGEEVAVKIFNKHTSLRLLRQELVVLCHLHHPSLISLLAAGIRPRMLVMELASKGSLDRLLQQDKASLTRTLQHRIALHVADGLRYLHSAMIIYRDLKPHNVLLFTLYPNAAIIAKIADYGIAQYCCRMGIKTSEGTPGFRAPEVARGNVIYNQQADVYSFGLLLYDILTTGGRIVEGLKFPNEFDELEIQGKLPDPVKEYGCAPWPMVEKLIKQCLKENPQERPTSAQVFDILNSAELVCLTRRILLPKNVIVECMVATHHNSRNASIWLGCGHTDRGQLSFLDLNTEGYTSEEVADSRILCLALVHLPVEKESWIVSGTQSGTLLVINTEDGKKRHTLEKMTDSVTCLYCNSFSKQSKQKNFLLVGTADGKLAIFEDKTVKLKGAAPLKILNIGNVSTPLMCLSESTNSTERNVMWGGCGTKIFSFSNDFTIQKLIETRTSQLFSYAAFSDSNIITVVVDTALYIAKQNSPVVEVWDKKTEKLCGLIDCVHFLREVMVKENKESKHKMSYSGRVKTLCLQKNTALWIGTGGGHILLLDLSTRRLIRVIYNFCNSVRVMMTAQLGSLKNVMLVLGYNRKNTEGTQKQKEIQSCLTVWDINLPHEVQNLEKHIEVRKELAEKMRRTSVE

Experiment [3] concerns the target T2, LRRK2 WT. Briefly: Enzymatic activity inhibition against LRRK2 WT (ADP-Glo kinase assay, LRRKtide substrate). The class given is biochemical. Details: purchased SignalChem Biotech, Inc. L10-11G-10. The note with it: recombinant LRRK2 WT 36 nM, ATP, 1 h at rt, average Ki. As for the experimental part: Example B. Primary Assays Used to Determine Potency of the LRRK2 Inhibition
Assay for Determining Enzymatic Activity Inhibition Against LRRK2 WT.
Compound activity was determined using recombinant LRRK2 WT protein (SignalChem Biotech, Inc., Cat #L10-11G-10) and LRRKtide substrate (SignalChem Biotech, Inc., Cat #L10-58) in an in vitro enzymatic reaction. The enzymatic reaction was carried out in assay buffer (40 mM TRIS-HCl pH 7.4, 20 mM MgCl2, 0.05 mM DTT, 0.1 mg/mL BSA). The compounds were dispensed into a 384 well Diamond Well Plate (Axigen, Cat #P-384-120SQ-C-S) using the Biomek FX liquid handling system at 80× solutions of compounds in DMSO. The 2× Protein-Substrate mix (final concentration 36 nM of LRRK2 WT and 0.8 μg/μL of LRRKtide) was prepared in the 1× Assay buffer and 4 μL of mixture per well was added into the 384-well white Reaction plate with NBS (Corning, Cat #CLS4513). The 4 μL of LRRKtide substrate w/o LRRK2 WT in the 1× buffer was used for a negative control. Plates were centrifuged for 1 min at 200 g. Next the compounds were added to Reaction plate using Biomek station via following steps: 1 μL of 80× compounds (in DMSO) were mixed thoroughly with 39 μL of 2×10 μM ATP in Assay Buffer, then 4 μL of this mixture was added to Reaction plate with 4 μL of Protein-Substrate mix. Plates were centrifuged for 1 min at 200 g and incubated for 1 hour at rt. Then, 4 μL per well of ADP-Glo reagent (Promega, ADP-Glo™ Kinase Assay, Cat #V9102) was added. Plates were incubated for 30 minutes at rt. Then, 8 μL per well of Kinase detection reagent (Promega, ADP-Glo™ Kinase Assay, Cat #V9102) was added and the luminescence signal was measured with a microplate reader. The % inhibition was then used to calculate the Ki values. The average Ki values are shown in Table B, wherein “A” corresponds to Ki<10.0 nM, “B” corresponds to 10.0 nM K Ki<20.0 nM, “C” 20.0 nM K Ki<50.0 nM, “D” corresponds to 50.0 nM K Ki<100.0 nM and “E” corresponds to Ki>100.0 nM.
Target sequence in this assay (Q5S007 970-2527 limits assumed): as the sequence (Q5S007 970-2527 G2019S limits assumed) above, with S1050G counted along it

In experiment [4] the target is T1, LRRK2[G2019S]. Description: Cell-based NanoBRET target engagement assay in HEK293 cells transfected with LRRK2 (G2019S)-NanoLuc fusion vector. Also on record: expressed in transfected cells; host or cells: HEK293 (ATCC). The note with it: compound treatment 1 h. As for the experimental part:
as §1, §2
Target sequence in this assay (Q5S007 whole entry G2019S): as the sequence (Q5S007 whole entry, the tested form may be a part) above, with G2019S counted along it

SMILES strings stand for the structures.

The Ki is a dissociation constant, usually derived from enzyme kinetics or from competition with a known ligand. The term IC50 denotes the midpoint of a concentration-inhibition curve.

Take `CC(C)Oc1ccc2[nH]nc(-c3cnnc(N4CCOCC4)c3)c2c1` [Compound 4, 4-[5-(5-isopropoxy-1H-indazol-3-yl)pyridazin-3-yl]morpholine]: the figures for the Ki at LRRK2[G2019S] [1] and on LRRK2 WT [3] were at most 5 nM and at most 10 nM, respectively. The figures for the IC50 at LRRK2 WT [2] and against LRRK2[G2019S] [4] were 50 to 100 nM and at most 50 nM, respectively.
For `CC(C)Oc1ccc2[nH]nc(-c3cc(N4CCOCC4)c(=O)n(C4CCCC4)n3)c2c1` [Compound 16, 2-cyclopentyl-6-(5-isopropoxy-1H-indazol-3-yl)-4-morpholino-pyridazin-3-one] the same measures were 5 to 10 nM, at most 10 nM, 50 to 100 nM and at most 50 nM.
For `CC(C)Cn1nc(-c2n[nH]c3ccc(OC(C)C)cc23)cc(N2CCOCC2)c1=O` [Compound 18, 2-isobutyl-6-(5-isopropoxy-1H-indazol-3-yl)-4-morpholino-pyridazin-3-one], the figures for the Ki on LRRK2[G2019S] [1] and at LRRK2 WT [3] were 5 to 10 nM and at most 10 nM, respectively. The IC50 at LRRK2 WT [2] and against LRRK2[G2019S] [4] was at least 100 nM each time.
With `CC(C)Oc1ccc2[nH]nc(-c3cc(N4CCOCC4)c(=O)n(C4CC4)n3)c2c1` [Compound 19, 2-cyclopropyl-6-(5-isopropoxy-1H-indazol-3-yl)-4-morpholino-pyridazin-3-one], the results for the Ki at LRRK2[G2019S] [1] and at LRRK2 WT [3] were at most 5 nM and at most 10 nM, respectively. Also, the 50% inhibitory concentration (IC50) was 50 to 100 nM against LRRK2 WT [2] and at most 50 nM on LRRK2[G2019S] [4].
Turning to `CC(C)Oc1ccc2[nH]nc(-c3cc(N4CCOCC4)c(=O)n(C(C)C)n3)c2c1` [Compound 21, 6-(5-isopropoxy-1H-indazol-3-yl)-2-isopropyl-4-morpholino-pyridazin-3-one], the Ki on LRRK2[G2019S] [1] is 5 to 10 nM; on LRRK2 WT [3], at most 10 nM. Further, the values for the IC50 against LRRK2 WT [2] and against LRRK2[G2019S] [4] were at least 100 nM and 50 to 100 nM, respectively.
With `CCn1nc(-c2n[nH]c3ccc(OC(C)C)cc23)cc(N2CCOCC2)c1=O` [Compound 23, 2-ethyl-6-(5-isopropoxy-1H-indazol-3-yl)-4-morpholino-pyridazin-3-one], the Ki was at most 5 nM at LRRK2[G2019S] [1] and at most 10 nM on LRRK2 WT [3]. Moreover, the IC50 is at least 100 nM against LRRK2 WT [2] and 50 to 100 nM against LRRK2[G2019S] [4].
As to `Cc1cc2[nH]nc(-c3cc(N4CCOCC4)c(=O)n(C)n3)c2cc1OC(C)C` [Compound 26, 6-(5-isopropoxy-6-methyl-1H-indazol-3-yl)-2-methyl-4-morpholino-pyridazin-3-one], the Ki at LRRK2[G2019S] [1] was 10 to 50 nM; at LRRK2 WT [3], at most 10 nM. Further, the IC50 against LRRK2 WT [2] and against LRRK2[G2019S] [4] was at least 100 nM each time.
Regarding `Cn1nc(-c2n[nH]c3ccc(OC4CCC4)cc23)cc(N2CCOCC2)c1=O` [Compound 28, 6-[5-(cyclobutoxy)-1H-indazol-3-yl]-2-methyl-4-morpholino-pyridazin-3-one], the Ki was at most 5 nM at LRRK2[G2019S] [1] and at most 10 nM on LRRK2 WT [3]. Further, the IC50 against LRRK2 WT [2] and at LRRK2[G2019S] [4] was at least 100 nM each time.
As to `Cn1nc(-c2n[nH]c3ccc(OC4CC4)cc23)cc(N2CCOCC2)c1=O` [Compound 30, 6-[5-(cyclopropoxy)-1H-indazol-3-yl]-2-methyl-4-morpholino-pyridazin-3-one], the Ki at LRRK2[G2019S] [1] is at most 5 nM; at LRRK2 WT [3], at most 10 nM. For the same compound, the IC50 on LRRK2 WT [2] and on LRRK2[G2019S] [4] was at least 100 nM each time.
Take `Cn1nc(-n2ncc3ccc(C(C)(C)C#N)cc32)cc(N2CCOCC2)c1=O` [Compound 43, 2-methyl-2-[1-(1-methyl-5-morpholino-6-oxo-pyridazin-3-yl)indazol-6-yl]propanenitrile]: the Ki was above 100 nM at LRRK2[G2019S] [1] and 50 to 100 nM on LRRK2 WT [3].
As to `Cn1nc(-c2n[nH]c3ccc(-n4cccc4C#N)cc23)cc(N2CCOCC2)c1=O` [Compound 45, 1-[3-(1-methyl-5-morpholino-6-oxo-pyridazin-3-yl)-1H-indazol-5-yl]pyrrole-2-carbonitrile], the Ki was 10 to 50 nM on LRRK2[G2019S] [1] and at most 10 nM on LRRK2 WT [3].
As to `C[C@@H]1CN(c2cc(-c3n[nH]c4ccc(OC5(C)CC5)cc34)nn(C3CC3)c2=O)C[C@H](C)O1` [Compound 51, 2-cyclopropyl-4-[(2S,6R)-2,6-dimethylmorpholin-4-yl]-6-[5-(1-methylcyclopropoxy)-1H-indazol-3-yl]pyridazin-3-one], the Ki on LRRK2[G2019S] [1] is at most 5 nM; at LRRK2 WT [3], at most 10 nM. In addition, the IC50 at LRRK2 WT [2] and against LRRK2[G2019S] [4] was at most 50 nM throughout.
